Reference: patent US9006433B2, “Substituted pyrimidines” (Merck Sharp & Dohme Corp., priority 2010, dated 2015)

Molecular target: T1, PHD2 (Homo sapiens, UniProt Q9GZT9)
T1 construct: FLAG-tagged full length PHD2 expressed in and purified from baculovirus-infected Sf9 cells; FLAG; made in house; host or cells: baculovirus-infected Sf9 cells
Assay: PHD2 inhibition assay (time resolved fluorescence, HIF-1α peptide hydroxylation / VHL complex detection)
Format: biochemical
Details: FLAG-tagged full length PHD2; 0.2 μM 2-oxoglutarate, 0.5 μM HIF-1α peptide
Description: To each well of a 96-well plate was added 1 μL of test compound in DMSO and 20 μl of assay buffer (50 mM Iris pH 7.4/0.01% Tween-20/0.1 mg/ml bovine serum albumin/10 μM ferrous sulfate/1 mM sodium ascorbate/20 μg/ml catalase) containing 0.15 μg/ml FLAG-tagged full length PHD2 expressed in and purified from baculovirus-infected Sf9 cells. After a 30 min preincubation at room temperature, the enzymatic reactions were initiated by the addition of […] of substrates (final concentrations of 0.2 μM 2-oxoglutarate and 0.5 μM HIF-1α peptide biotinyl-DLDLEMLAPYIPMDDDFQL (SEQ ID NO:1)). After 2 hr at room temperature, the reactions were terminated and signals were developed by the addition of a 25 μL quench/detection mix to a final concentration of 1 mM ortho-phenanthroline, 0.1 mM EDTA, 0.5 nM anti-(His)6 LANCE reagent (Perkin-Elmer Life Sciences), 100 nM AF647-labeled streptavidin (Invitrogen), and 2 μg/ml (His)-6-VHL complex (S. Tan(2001) Protein Expr. Purif. 21, 224-234). The ratio of time resolved fluorescence signals at 665 and 620 nm was determined, and percent inhibition was calculated relative to an uninhibited control sample run in parallel.

T1 sequence (Q9GZT9 whole entry, species assumed): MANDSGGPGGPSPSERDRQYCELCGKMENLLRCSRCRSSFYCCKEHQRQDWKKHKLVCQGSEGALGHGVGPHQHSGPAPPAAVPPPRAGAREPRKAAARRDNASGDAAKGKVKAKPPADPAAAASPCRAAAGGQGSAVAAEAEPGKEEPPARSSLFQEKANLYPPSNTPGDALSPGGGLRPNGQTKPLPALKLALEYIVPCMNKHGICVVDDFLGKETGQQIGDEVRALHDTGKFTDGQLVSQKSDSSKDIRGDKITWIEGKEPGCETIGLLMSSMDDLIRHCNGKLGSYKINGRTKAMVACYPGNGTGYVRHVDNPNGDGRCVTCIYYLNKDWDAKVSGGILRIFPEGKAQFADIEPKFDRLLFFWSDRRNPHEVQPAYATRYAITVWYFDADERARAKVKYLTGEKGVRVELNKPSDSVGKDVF

Row | Structure (SMILES) | IC50 [nM]
1 | O=C(Cc1ccc(-c2ccccc2)cc1)Nc1cnc(-n2cccn2)nc1O [Compound 3-42, 2-(biphenyl-4-yl)-N-(4-hydroxy-2-(1H-pyrazol-1-yl)pyrimidin-5-yl)acetamide] | 0.5 to 20
2 | CCCCCCC(=O)Nc1cnc(-n2cccn2)nc1O [Compound 3-43, N-(4-hydroxy-2-(1H-pyrazol-1-yl)pyrimidin-5-yl)heptanamide] | 0.5 to 20
3 | O=C(CCc1ccccc1)Nc1cnc(-n2cccn2)nc1O [Compound 3-44, N-(4-hydroxy-2-(1H-pyrazol-1-yl)pyrimidin-5-yl)-3-phenylpropanamide] | 20 to 100
4 | O=C(CCCc1ccccc1)Nc1cnc(-n2cccn2)nc1O [Compound 3-45, N-(4-hydroxy-2-(1H-pyrazol-1-yl)pyrimidin-5-yl)-4-phenylbutanamide] | 0.5 to 20
5 | O=C(Nc1cnc(-n2cccn2)nc1O)C1CCCCC1 [Compound 3-46, N-(4-hydroxy-2-(1H-pyrazol-1-yl)pyrimidin-5-yl)cyclohexanecarboxamide] | 20 to 100
6 | CC(C)(C)OC(=O)N1CCC(C(=O)Nc2cnc(-n3cccn3)nc2O)CC1 [Compound 3-47, tert-butyl4-(4-hydroxy-2-(1H-pyrazol-1-yl)pyrimidin-5-ylcarbamoyl)piperidine-1-carboxylate] | 0.5 to 20
7 | O=C(CC1CCCCC1)Nc1cnc(-n2cccn2)nc1O [Compound 3-48, 2-cyclohexyl-N-(4-hydroxy-2-(1H-pyrazol-1-yl)pyrimidin-5-yl)acetamide] | 0.5 to 20
8 | CC(C)(C)OC(=O)N1CCCC(C(=O)Nc2cnc(-n3cccn3)nc2O)C1 (stereo not drawn) [Compound 3-49, tert-butyl 3-(4-hydroxy-2-(1H-pyrazol-1-yl)pyrimidin-5-ylcarbamoyl)piperidine-1-carboxylate] | 100 to 10000
9 | CC(C)(C)OC(=O)N1CCC(CC(=O)Nc2cnc(-n3cccn3)nc2O)CC1 [Compound 3-50, tert-butyl4-((4-hydroxy-2-(1H-pyrazol-1-yl)pyrimidin-5-ylcarbamoyl)methyl)piperidine-1-carboxylate] | 20 to 100
10 | CC(C)(C)OC(=O)N1CCC(C(=O)Nc2cnc(-n3cccn3)nc2O)C1 (stereo not drawn) [Compound 3-51, tert-butyl 3-(4-hydroxy-2-(1H-pyrazol-1-yl)pyrimidin-5-ylcarbamoyl)pyrrolidine-1-carboxylate] | 20 to 100
11 | O=C(Nc1cnc(-n2cccn2)nc1O)C1CCCc2ccccc21 (stereo not drawn) [Compound 3-52, 1,2,3,4-tetrahydro-N-(4-hydroxy-2-(1H-pyrazol-1-yl)pyrimidin-5-yl)naphthalene-1-carboxamide] | 0.5 to 20
12 | O=C(Nc1cnc(-n2cccn2)nc1O)C1CCc2ccccc21 (stereo not drawn) [Compound 3-53, 2,3-dihydro-N-(4-hydroxy-2-(1H-pyrazol-1-yl)pyrimidin-5-yl)-1H-indene-1-carboxamide] | 0.5 to 20
13 | O=C(Nc1cnc(-n2cccn2)nc1O)C1CCc2ccccc2C1 (stereo not drawn) [Compound 3-54, 1,2,3,4-tetrahydro-N-(4-hydroxy-2-(1H-pyrazol-1-yl)pyrimidin-5-yl)naphthalene-2-carboxamide] | 20 to 100
14 | O=C(Nc1cnc(-n2cccn2)nc1O)C1Cc2ccccc2C1 [Compound 3-55, 2,3-dihydro-N-(4-hydroxy-2-(1H-pyrazol-1-yl)pyrimidin-5-yl)-1H-indene-2-carboxamide] | 0.5 to 20
15 | O=S(=O)(Nc1cnc(-n2cccn2)nc1O)c1ccc(Cl)cc1 [Compound 4-1, 4-chloro-N-[4-hydroxy-2-(1H-pyrazol-1-yl)pyrimidin-5-yl]benzenesulfonamide] | 20 to 100
16 | O=S(=O)(Cc1ccc(Cl)cc1)Nc1cnc(-n2cccn2)nc1O [Compound 4-2, 1-(4-chlorophenyl)-N-[4-hydroxy-2-(1H-pyrazol-1-yl)pyrimidin-5-yl]methanesulfonamide] | 20 to 100
17 | O=S(=O)(Nc1cnc(-n2cccn2)nc1O)c1cccc(Cl)c1 [Compound 4-3, 3-chloro-N-[4-hydroxy-2-(1H-pyrazol-1-yl)pyrimidin-5-yl]benzenesulfonamide] | 100 to 10000
18 | O=S(=O)(Cc1ccc(C(F)(F)F)cc1)Nc1cnc(-n2cccn2)nc1O [Compound 4-4, N-[4-hydroxy-2-(1H-pyrazol-1-yl)pyrimidin-5-yl]-1-[4-(trifluoromethyl)phenyl]methanesulfonamide] | 100 to 10000
19 | O=C(Nc1ccccc1)Nc1cnc(-n2cccn2)nc1O [Compound 5-1, 1-(4-hydroxy-2-(1H-pyrazol-1-yl)pyrimidin-5-yl)-3-phenylurea] | 100 to 10000
20 | O=C(NCc1ccccc1)Nc1cnc(-n2cccn2)nc1O [Compound 5-2, 1-benzyl-3-(4-hydroxy-2-(1H-pyrazol-1-yl)pyrimidin-5-yl)urea] | 0.5 to 20
21 | CC(NC(=O)Nc1cnc(-n2cccn2)nc1O)c1ccccc1 (stereo not drawn) [Compound 5-3, 1-(4-hydroxy-2-(1H-pyrazol-1-yl)pyrimidin-5-yl)-3-(1-phenylethyl)urea] | 0.5 to 20

Row | Structure (SMILES) | IC50 [nM]
22 | O=C(Nc1cnc(-n2cccn2)nc1O)NC1CCCCC1 [Compound 5-4, 1-cyclohexyl-3-(4-hydroxy-2-(1H-pyrazol-1-yl)pyrimidin-5-yl)urea] | 20 to 100
23 | O=C(Nc1cnc(-n2cccn2)nc1O)NC1CCCC1 [Compound 5-5, 1-cyclopentyl-3-(4-hydroxy-2-(1H-pyrazol-1-yl)pyrimidin-5-yl)urea] | 100 to 10000
24 | CC(C)(C)NC(=O)Nc1cnc(-n2cccn2)nc1O [Compound 5-6, ert-butyl-3-(4-hydroxy-2-(1H-pyrazol-1-yl)pyrimidin-5-yl)urea] | 100 to 10000
25 | O=C(Nc1cnc(-n2cccn2)nc1O)N(c1ccccc1)c1ccccc1 [Compound 5-7, 3-(4-hydroxy-2-(1H-pyrazol-1-yl)pyrimidin-5-yl)-1,1-diphenylurea] | 0.5 to 20
26 | CC(C)N(C(=O)Nc1cnc(-n2cccn2)nc1O)c1ccccc1 [Compound 5-8, 3-(4-hydroxy-2-(1H-pyrazol-1-yl)pyrimidin-5-yl)-1-isopropyl-1-phenylurea] | 20 to 100
27 | O=C(Nc1cnc(-n2cccn2)nc1O)Oc1ccccc1 [Compound 5-9, phenyl 4-hydroxy-2-(1H-pyrazol-1-yl)pyrimidin-5-ylcarbamate] | 100 to 10000
28 | O=C(Nc1cnc(-n2cccn2)nc1O)OC1CCCCC1 [Compound 5-10, cyclohexyl 4-hydroxy-2-(1H-pyrazol-1-yl)pyrimidin-5-ylcarbamate] | 20 to 100
29 | O=C(Nc1cnc(-n2cccn2)nc1O)OC1CCCC1 [Compound 5-11, cyclopentyl 4-hydroxy-2-(1H-pyrazol-1-yl)pyrimidin-5-ylcarbamate] | 20 to 100
30 | CC(C)(C)OC(=O)Nc1cnc(-n2cccn2)nc1O [Compound 5-12, tert-butyl 4-hydroxy-2-(1H-pyrazol-1-yl)pyrimidin-5-yl carbamate] | 100 to 10000
31 | CCCCOC(=O)Nc1cnc(-n2cccn2)nc1O [Compound 5-13, butyl 4-hydroxy-2-(1H-pyrazol-1-yl)pyrimidin-5-ylcarbamate] | 100 to 10000
32 | COc1ccc(OC(=O)Nc2cnc(-n3cccn3)nc2O)cc1 [Compound 5-14, 4-methoxyphenyl 4-hydroxy-2-(1H-pyrazol-1-yl)pyrimidin-5-ylcarbamate] | 20 to 100
33 | CC(C)(C)CCOC(=O)Nc1cnc(-n2cccn2)nc1O [Compound 5-15, 3,3-dimethylbutyl 4-hydroxy-2-(1H-pyrazol-1-yl)pyrimidin-5-ylcarbamate] | 20 to 100
34 | O=C(Nc1cnc(-n2cccn2)nc1O)OCCc1ccccc1 [Compound 5-16, phenethyl 4-hydroxy-2-(1H-pyrazol-1-yl)pyrimidin-5-ylcarbamate] | 20 to 100
35 | O=C(Nc1cnc(-n2cccn2)nc1O)Oc1ccc(-c2ccccc2)cc1 [Compound 5-17, biphenyl-4-yl 4-hydroxy-2-(1H-pyrazol-1-yl)pyrimidin-5-ylcarbamate] | 100 to 10000
36 | O=C(Nc1cnc(-n2cccn2)nc1O)Oc1ccc2ccccc2c1 [Compound 5-18, naphthalen-2-yl 4-hydroxy-2-(1H-pyrazol-1-yl)pyrimidin-5-ylcarbamate] | 100 to 10000
37 | Oc1nc(-n2cccn2)ncc1NC(=S)NC(c1ccccc1)c1ccccc1 [Compound 6-1, 1-benzhydryl-3-(4-hydroxy-2-(1H-pyrazol-1-yl)pyrimidin-5-yl)thiourea] | 0.5 to 20
38 | CC(NC(=S)Nc1cnc(-n2cccn2)nc1O)c1ccccc1 (stereo not drawn) [Compound 7-1, 1-(4-hydroxy-2-(1H-pyrazol-1-yl)pyrimidin-5-yl)-3-(1-phenylethyl)thiourea] | 0.5 to 20
39 | CC(C)(NC(=S)Nc1cnc(-n2cccn2)nc1O)c1ccccc1 [Compound 8-1, 1-(4-hydroxy-2-(1H-pyrazol-1-yl)pyrimidin-5-yl)-3-(2-phenylpropan-2-yl)thiourea] | 20 to 100
40 | O=C(OC(c1ccccc1)c1ccccc1)c1cnc(-n2cccn2)nc1O [Compound 9-1, benzhydryl 4-hydroxy-2-(1H-pyrazol-1-yl)pyrimidine-5-carboxylate] | 100 to 10000
41 | O=C(Nc1cnc(-c2ccccn2)nc1O)C(c1ccccc1)c1ccccc1 [Compound 10-1, N-(4-hydroxy-2-(pyridin-2-yl)pyrimidin-5-yl)-2,2-diphenylacetamide] | 20 to 100
42 | Oc1nc(-n2cccn2)ncc1-c1cnn(-c2ccccc2)c1 [Compound 11-1, 5-(1-phenyl-1H-pyrazol-4-yl)-2-(1H-pyrazol-1-yl)pyrimidin-4-ol] | 100 to 10000
